Measurements taken from US10548933B2, “Method for preparing broccoli protein peptide mixture” (ZHEJIANG HISUN PHARMACEUTICAL CO., LTD., priority 2015, dated 2020).

Test: DPPH free radical scavenging rate method (antioxidant capacity)
Assay type: biochemical
Settings: 30 min, dark, 517 nm, average of three
Experimental: The antioxidant capacity was determined with the neutral protease and trypsin-digested peptide prepared in example 2, as well as the alkaline protease-digested peptide, the trypsin-digested peptide, the neutral protease-digested peptide, the papain-digested peptide and the pepsin-digested peptide prepared in example 3 used as samples, with soybean protein peptide and reduced glutathione used as controls (DPPH free radical scavenging rate method).
(1) DPPH (1,1-diphenyl-2-picrylhydrazyl) (25 mg) was weighed accurately, dissolved in absolute ethanol and the volume reached to 250 mL in a brown volumetric flask, DPPH solution with the concentration of 0.1 mg/mL was obtained and was kept in dark place to be supplied as standby.
(2) 1.0 mL sample solutions with different concentrations (100 mg/mL, 10 mg/mL, 1 mg/mL, 0.1 mg/mL) were taken, the solutions were placed in a 10 mL colorimetric tube respectively, 4.0 ml DPPH solution was added, the mixture was reacted at room temperature in a dark place for 30 minutes.
(3) The absorbance value was measured at 517 nm with the absolute ethanol as blank. The DPPH free radical scavenging rate was calculated according to the following formula. DPPH free radical scavenging rate (%)=[…] • In the formula. A0—the absorbance value of 1.0 mL distilled water+3.0 mL solution • As—the absorbance value of 1.0 mL sample solution+3.0 mL DPPH solution • Ac—the absorbance value of 1.0 mL sample solution+3.0 mL absolute ethanol.
The experiment was repeated for three times, the average value of the scavenging rate was obtained (if the solution was turbid, the measurement was taken after centrifugation).

N[C@@H](CCC(=O)N[C@@H](CS)C(=O)NCC(=O)O)C(=O)O [Reduced glutathione (GSH), Reduced glutathione]
DPPH free radical scavenging rate (sample concentration 0.1 mg/ml): 30.8% | DPPH free radical scavenging rate (sample concentration 1 mg/ml): 72.1% | DPPH free radical scavenging rate (sample concentration 10 mg/ml): 90.9% | DPPH free radical scavenging rate (sample concentration 100 mg/ml): 95.9%
